The subject of test [1] is Salmonella enteric serovar typhi. In words: Agar disc diffusion, strain C. In kind it is cell-based. The note with it: for diameter of the clear zone inhibition: control = 6 mm. As to the method: (§1) In-vitro antimicrobial properties were evaluated for all samples by the agar disc diffusion method towards different fungal and bacterial strains. Additionally, the reported inhibition zone values were comparatively analyzed with the standard antifungal drugs ketoconazole and amphotericin B as well as the standard antibiotic medications streptomycin and amikacin.
(§2) The current research has a curious focus on the in vitro antimicrobial properties of biological systems because these studies are crucial for developing effective antibacterial and antifungal medications. […] It can also be spelled out based on the chelation theory proposed by Overtone and Tweedy. Chelation theory points out that the partial exchanging of the positive charge of the metal center with donor moieties, and overlap of the ligand orbitals will reduce the greater degree of the metal ion's polarity, which ultimately rises the delocalization of π and d electrons over the full chelated ring system. By raising the size of the metal ion due to the retarding of polarization, chelation may also enhance the complexes' lipophilic characteristics, which further stimulate the lipid membrane permeability and break down the bacteria' enzymes responsible for cell wall formation, therefore slowing down the regular cell processes. By preventing the production of cell walls/proteins/DNA, including by obstructing folate metabolism and the cytoplasmic membrane, antimicrobial drugs frequently either fully eliminate microbes or only prevent their cell growth. Additionally, the samples' mode of action may be employed in disrupting the cell's respiration process by forming an H-bond during the morpholine-fused iminic group coordinated with the active metal center of its components, inhibiting proliferation of the cell. […] The difference in the antimicrobial efficacy of some of the compounds towards various microorganisms influences on the impermeability of the cells of the germs or the diversity of ribosomes of the microbes. The % of the inhibition of all substances is estimated from (45) (Table 9).
(§3) (A, B, C, D, and E are represented as gram negative bacteria species Escherichia coli, Salmonella enteric serovar typhi, Salmonella enteric serovar typhi, Pseudomonas aeruginosa, and Shigella flexneri, respectively. F & G are denoted as gram positive bacteria species Staphylococcus aureus and Bacillus cereus. H, I, and J are represented as fungal strains Aspergillus niger, Candida albicans, and Mucor indicus. Standard drugs for bacterial strains: Amikacin & Streptomycin Standard drugs for fungal strains: Ketoconazole and Amphotericin B. [Control (DMSO) = 6 mm].(44) Inhibition %=T–C/T×100, where T and C are represented as the diameter of microbial growth of the sample plates and the control plate (6 mm), respectively. Error limits ±2.5–5.0% (P ≤ 0.05).

In test [2] the target is BSA (Bos taurus, UniProt P02769). In words: BSA fluorescence quenching (emission titration). In kind it is binding, bovine. The note with it: values in brackets; for KSV (BSA), SV method I: 350 nm; for P (BSA), ratio of fluorescence quantum efficiency: F/F0 vs 1/[BSA]; for Kq (BSA), SV method I: Kq=KSV/τ0; for ∆Gb° (BSA), SV method II: –RT lnKass. The protocol: The experiment was performed in the 200 to 800 nm region. This is supporting evidence for the complexes' manner of deoxyribonucleic acid binding. When DNA (200 μM) was present or absent, we carefully monitored the intensity variations between 610 nm and 510 nm during the initial emission and excitation of EB [6, 28, 37]. Similarly, emission titrations for BSA interaction with different concentrations between 2.5 μM and 25 μM for all substances were conducted in a Tris-HCl buffer solution (pH: 7.4) between the regions of 300 nm and 400 nm.
K SV is denoted as Stern–Volmer binding constant; Kass is represented as association binding constant; Kapp is represented as apparent binding constant, Kapp=KEB[EB]/[compound]=500/[compound], KEB = 10^7 M^−1 at the concentration of 50 μM EB; Gibb's free energy change ΔGb°=–RT lnKass; Kq is represented as bimolecular quenching rate constant/Stern–Volmer dynamic quenching rate constant (Kq=KSV/τ0), average life time of the biomolecular quenching in the absence of a quencher (τ0) = 10^−8 S; Gibb's free energy change ΔGb°=–RT lnKass (where R = […], T = 298 K); KLB is represented as Lineweaver–Burk (LWB) binding constant; KSA is represented as Scatchard association binding constant; Kapp is denoted as apparent binding constant; n is the number of binding sites; P is a ratio of fluorescence quantum efficiency of DNA bound and free complex (P=ɸb/ɸf), which is obtained as intercept from plot F/F0 vs. 1/[DNA], Error limit is ± 2.5% (P < 0.025).(12) Fcorr=Fobs×e^Aex×dex+Aem×dem/2=Fobs×e^Aex+Aem/2, where Fcorr and Fobs are represented as the IFE-corrected fluorescence and observed (uncorrected) emission intensities, respectively. dex and dem are denoted as the cuvette path lengths in the excitation and emission directions, respectively. Aex and Aem are represented as the change in absorbance at the excitation and fluorescence wavelengths, respectively.(13) F0 /F=1+KSVQ=1+Kq τ0, where [Q] is represented as the sample concentration, the emission intensities F0 and F of DNA/BSA in the absence and presence of the quencher (sample), respectively.(14) F0 /F−1=F0−F/F=KSVQlogF0−F/F=logKass+n logQ, (15) KEBEB=Kappcompound, (16) 1/F0−F=1/F0 KLBQ+1/F0 , (17) γ/CF =KSCn−γ, where γ = [(F0 − F)/F0], and CF is denoted as the concentration of sample alone.
Additionally, the intensity of bovine serum albumin was monitored at 350 nm (λex = 278 nm) during fluorescence titration. When increasing the sample concentrations, the BSA intensity diminishes dramatically owing to static quenching in the ground state. It is noted that the fluorophores of BSA are not clearly exposed to a shift in polarity. […] Additionally, the Stern–Volmer equations (12)-(13) were employed to analyze the data (Figure S27 and Table 4). […] They are also much exceeded compared to the collision quenching constant value (2.0 × 10^10 mol^−1·s^−1). Therefore, it is assumed that the static quenching process was brought on by adduct construction between the compounds and bovine serum albumin rather than a dynamic collision. However, fluorescence spectroscopy is generally plagued by the inner filter effect (IFE), which disturbs the spectral analysis in particular. The energizing ray is attenuated due to the highly concentrated solution sample. As a result, strong fluorescence is only seen on surfaces facing the excitation beam. The fluorescence intensity is reduced as a result of an inner filter effect generated by some chemicals' absorption of the excitation or emission wavelength in the UV province. The observed values of the absorption wavelength of ligand (HL) and mixed ligand complexes (1a-2a) in the range of 335–337 nm, the bovine serum albumin excitation wavelength of 278 nm, and emission wavelength of 350 nm were used to assess the effect of IFE in this approach. Equation (12) is employed to solve IFE in this instance as well (Table 4). […]

Test [3] deals with Candida albicans. In words: Agar disc diffusion, strain I. It counts as cell-based. On the set-up: (inhibition %): concentration or dose not given beside the values. The note with it: for diameter of the clear zone inhibition: control = 6 mm. As to the method:
as §1, §2, §3

This is an account of results in paper PMC9763021, “Comprehensive Assessment of Biomolecular Interactions of Morpholine-Based Mixed Ligand Cu(II) and Zn(II) Complexes of 2,2′-Bipyridine as Potential Anticancer and SARS-CoV-2 Agents: A Synergistic Experimental and Structure-Based Virtual Screening” (Bioinorganic Chemistry and Applications, 2022).

Structures are written as SMILES.

With `[Cu+2].[O-]c1ccccc1N=Cc1ccc(N2CCOCC2)cc1.[O-]c1ccccc1N=Cc1ccc(N2CCOCC2)cc1.c1ccc(-c2ccccn2)nc1` [(1a), [Cu(L)2(bpy)]], in test [1], the “(inhibition %)” value is given as 50% and the “diameter of the clear zone inhibition” value came out at 12 mm. In addition, in test [2], the “Kass (BSA), SV method II” value was 87340 M⁻¹; the “n (BSA), SV method II” value amounted to 1.059; the “KSV (BSA), SV method I” value turned out to be 86910 M⁻¹; the “P (BSA), ratio of fluorescence quantum efficiency” value (“P (BSA), ratio” for short) was found to be 0.252. Besides, in test [2], the “Kq (BSA), SV method I” value is 8.691e+12 M⁻¹ s⁻¹ and the “∆Gb° (BSA), SV method II” value is given as −28.2 kJM^−1. For the same compound, in test [3], the “(inhibition %)” value turned out to be 50% and the “diameter of the clear zone inhibition” value is given as 12 mm.

Regarding `Oc1ccccc1N=Cc1ccc(N2CCOCC2)cc1` [(HL), 2-(4-morpholinobenzylideneamino)phenol], in test [1], the “(inhibition %)” value is given as 45% and the “diameter of the clear zone inhibition” value is 11 mm. In test [2], the “Kass (BSA), SV method II” value worked out at 10620 M⁻¹; the “n (BSA), SV method II” value is 0.926; the “KSV (BSA), SV method I” value worked out at 26390 M⁻¹; the “P (BSA), ratio” value is listed as 0.464. Further, in test [2], the “Kq (BSA), SV method I” value was 2.639e+12 M⁻¹ s⁻¹ and the “∆Gb° (BSA), SV method II” value is −23.0 kJM^−1. Moreover, in test [3], the “(inhibition %)” value was 40% and the “diameter of the clear zone inhibition” value is 10 mm.

With `[O-]c1ccccc1N=Cc1ccc(N2CCOCC2)cc1.[O-]c1ccccc1N=Cc1ccc(N2CCOCC2)cc1.[Zn+2].c1ccc(-c2ccccn2)nc1` [(2a), [Zn(L)2(bpy)]], in test [1], the “(inhibition %)” value is reported as 33% and the “diameter of the clear zone inhibition” value came to 09 mm. In test [2], the “Kass (BSA), SV method II” value was found to be 52910 M⁻¹; the “n (BSA), SV method II” value is recorded as 1.041; the “KSV (BSA), SV method I” value turned out to be 48050 M⁻¹; the “P (BSA), ratio” value came to 0.348. In addition, in test [2], the “Kq (BSA), SV method I” value was 4.805e+12 M⁻¹ s⁻¹ and the “∆Gb° (BSA), SV method II” value was −26.9 kJM^−1. Also, in test [3], the “(inhibition %)” value is reported as 54% and the “diameter of the clear zone inhibition” value was determined as 13 mm.
